Measured values: US20230398077A1, “SILICASOME NANOCARRIER FOR METAL-BASED DRUG DELIVERY” (The Regents of the University of California, priority 2020, published 2023)

Legend:
KPC cells [1] = test: Vaccination study with chemo-induced dying KPC cells, re-challenge on contralateral side; details: for infiltration by CD8^+ T-cells / number of Foxp3^+ regulatory T cell (Treg) / increase in CD8^+/Tregs cell ratio compared to PBS control: IHC of contralateral tumors; for increase in CD8^+/Tregs cell ratio compared to PBS control: day 26; for tumor growth on the contralateral side: vaccination with drug-treated dying KPC cells, p<0.05
Protocol: In order to determine whether these in vitro ICD markers actually represent an in vivo immunogenic effect as specified by a consensus ICD document^[26], we also performed a vaccination study in a syngeneic KPC animal model. Suspensions of dying tumor cells, generated by oxaliplatin or DACHPt treatment for 24 h, were subcutaneously injected on 2 occasions (7 days apart) in left flank of immunocompetent B6129SF1/J mice. This was followed by tumor re-challenge on the contralateral side using untreated KPC cells (FIG. 4, panel C).
Moreover, we also validated the ICD effect of DACHPt in a vaccination experiment, using a published protocol^[26]. Briefly, eight million KPC cells were seeded in a tissue culture dish. After cellular attachment, DACHPt or free oxaliplatin (500 μM) were added for 24 h. Cells were collected and washed before being resuspended in 0.8 mL cold PBS. For vaccination, each mouse received subcutaneous injection (SC) of a 100 μL suspension of chemo-treated cells in the right flank. Control animals received PBS only. The vaccination was repeated after 7 days. Fourteen days after the 1st vaccination, the same mice received the SC injection of healthy KPC cells (1×10^6 cells) in the contralateral side. Tumor growth was measured by a digital caliper every 2-3 days. At the conclusion of the vaccination experiment (Day 26), animals were sacrificed and the tumors collected for IHC immunophenotyping of CD8^+ T cells and FoxP3^+ Treg cells. Primary antibodies to CD8 (#14-0808-82, 1:100) and FoxP3 (#13-5773-82, 1:200) were purchased from ThermoFisher. […] The slides were scanned and images were assessed by using Aperio ImageScope software (Leica).

[2] = Pt drug loading of MSNP/silicasome (EE %, LC %) by ICP-MS/ICP-OES; format: physicochemical; details: DACHPt incubated with bare MSNP, Pt:MSNP 1:5 w/w
Protocol: In various embodiments the silica nanoparticles are loaded with platinum-based drugs using a combination of coordination and electrostatic interactions. Since the silanol group density on the silica nanoparticle surface(s) (e.g., pore surfaces) an important role in the surface binding of the activated platinum compound (e.g., DACHPt) (see FIG. 2), it is desirable to control the pH during drug loading. Thus, the loading efficiency and capacity was optimized through control of. pH, incubation time, the soaking process, and variation of the drug/particle ratio, etc. Thus, for example, 20 mg MSNP resuspend in 1 mL HEPES buffer (0.1 M, pH 8.5) was mixed with DACHPt complex (4 mg Pt, equal to 8 mg OX). The mixture was sonicated in water bath sonication for 10 mins and then spun down at 15 K rpm for 10 mins. Non-bound Pt in the supernatant, as detected by ICP-OES was used to determine the loading capacity [%=(total Pt—Pt in supernatant)/amount of MSNP*100} and loading efficiency [%=(total Pt—Pt in supernatant)/total Pt*100].
Sixty-five nm bare MSNPs were synthesized at 18 L scale and purified by extensive acidic ethanol washing to remove the CTAC detergent, as reported previously^[4b]. In order to determine the optimal loading condition, we experimented with multiple rounds of drug loading to find the optimal pH, incubation time, sonication condition, and particle/drug feed ratio, etc. Details of the protocol optimization appear online (FIG. 8). In the case of DACHPt loading, purified MSNP (20 mg) from ethanol stock solution was spun at 15,000 rpm for 15 min, and resuspend in 1 mL HEPES buffer (200 mM, pH 8.5). The MSNP suspension was spun down and resuspend in 0.5 mL HEPES buffer (200 mM, pH 8.5). Then, 160 μL DACHPt solution (25 mg/mL, e.q. Pt) and 340 μL pure H2O were added to the MNSP suspension (40 mg/mL, 0.5 mL). The mixture was sonicated for 10 min. In a sonication water bath. The DACHPt-laden MSNPs were spun down at 15,000 rpm for 12 min, followed by collecting the supernatant for Pt elemental analysis by ICP-MS. […]

HMGB1 = HMGB1 release from KPC cells (ELISA); format: cell-based, murine; details: 500 μM, 24 h
Protocol: Surface CRT expression was measured by flow cytometry as previously described^[24a]. Briefly, 7.5×10^4 KPC cells were seeded into 24-well plates. After cell attachment, KPC cells were treated with free oxaliplatin and DACHPt (500 μM), for 24 h. The loosely attached cells were combined with trypsin-treated at adherent cells. The cells were washed in cold PBS and then stained on ice with a primary anti-CRT antibody (Abcam, ab2907, 1:140) in 200 μL BD staining buffer for 0.5 h. The cells were washed in cold PBS and stained with an […] secondary antibody (LifeScience Technologies #A21244) for 30 min on ice. After washing in cold PBS, the cells were assessed in a LSRII flow cytometer (BD Biosciences). In the same experiment, the cell culture media were spun down to collect the supernatants for HMGB1 detection by an ELISA kit (Catalog #ST51011, IBL International GmbH), according to the manufacture's instruction.

calreticulin (CRT) = test: Surface CRT expression in KPC cells (immunofluorescence, flow cytometry); format: cell-based, murine; details: 500 μM, 24 h
Protocol: Surface CRT expression was visualized by immunofluorescence (IF) staining using an anti-CRT primary antibody, followed by the incubation with Alex488 conjugated secondary antibody. Briefly, ˜1.5×10^4 KPC cells were seeded into an 8-well confocal chamber slide. After 24 h, the cell culture medium was replaced with fresh medium containing the chemo agents, following which the cells were incubated for another 24 h. The cells were washed twice in cold PBS and fixed with 4% paraformaldehyde (PFA) at room temperature (r.t.) for 15 mins. After fixation, the cells were washed twice with cold PBS and blocked with 1% BSA in PBS for 0.5 h. The cells were incubated with anti-CRT primary antibody (ab2907, 1:200) in 200 μL blocking solution at 4° C. overnight, followed by washing with PBS and staining with secondary antibody (Alex488 conjugated goat anti-rabbit secondary antibody, A-11008, 1:1000) together with the nuclear dye, Hoechst 33342, at r.t. for 1 h. The cells were washed with PBS, then imaged by using a Leica SP8-MD confocal microscope under the 100× objective lens.
Surface CRT expression was measured by flow cytometry as previously described^[24a]. Briefly, 7.5×10^4 KPC cells were seeded into 24-well plates. […] After washing in cold PBS, the cells were assessed in a LSRII flow cytometer (BD Biosciences). […]

orthotopic KPC tumor [3] = test: Anti-PDAC efficacy in orthotopic KPC model; format: in vivo, B6129SF1/J mice; details: Pt 2 mg/kg IV every 3 days, 3 administrations, day 17
Protocol: An efficacy study was performed by IV injection of the silicasome carrier eight days after orthotopic KPC implantation in the pancreas of B6129SF1/J mice (FIG. 3, panel D). This corresponds to beginning the treatment at a primary tumor size of 5-10 mm in the absence of macro-metastases^[21]. IV injections were repeated every 3 days for a total of 3 repeats. The control groups included animals receiving IV saline or free oxaliplatin. The tumor growth at the primary and metastatic sites was followed by IVIS bioluminescence imaging up to conclusion of the experiment on day 17 (FIG. 3, panel D, right).
KPC-luc cells (˜1×10^6) were orthotopically injected into the pancreas in mice. […] The control includes saline as well as free oxaliplatin. This dose arrangement is in agreement with the literature^[27]. Tumor-bearing mice received IV injection of the indicated therapy every 3 days for a total of 3 administrations. Before animal sacrifice (72 h post the last IV injection), the mice received intraperitoneal injection of D-luciferin, followed by ex vivo bioluminescence imaging using an IVIS imaging system. […] The H&E slides for toxicity assessment were read in a blinded fashion by an experienced veterinary pathologist.

[4] = Safety assessment by H&E histology of bone marrow and major organs (efficacy study)
Protocol: KPC-luc cells (˜1×10^6) were orthotopically injected into the pancreas in mice. […] The control includes saline as well as free oxaliplatin. […] Tumor-bearing mice received IV injection of the indicated therapy every 3 days for a total of 3 administrations. Before animal sacrifice (72 h post the last IV injection), the mice received intraperitoneal injection of D-luciferin, followed by ex vivo bioluminescence imaging using an IVIS imaging system. Primary tumor and major organs (e.g. sternum, heart, liver, spleen, lung and kidneys) were harvested and fixed in 10% formalin, followed by paraffin embedding and sectioning to provide 4 μm slices for histological analysis in the UCLA Translational Pathology Core Laboratory (TPCL). H&E staining was performed to look at the pathological abnormality in mice receiving different treatments. The H&E slides for toxicity assessment were read in a blinded fashion by an experienced veterinary pathologist.

KPC cells [5] = test: Cytotoxicity MTS assay in KPC cells; details: 500 μM, 24 h
Protocol: The DACHPt silicasome was tested in a list of cancer cell lines to determine the in vitro killing effect, using a MTS assay. […] The MTS assay was conducted with free DACHPt and oxaliplatin as controls. Data are expressed as mean±SD. n=3.
The MTS assay was performed at 24 h after the treatment with oxaliplatin or DACHPt in KPC cells. Data represents mean±SD, n=3.
Cytotoxicity testing of free Pt drugs or drug-laden silicasomes was performed by using a standard MTS assay (CellTiter 96© AQueous One Solution Cell Proliferation Assay, Promega). PDAC cells were plated at a density of 5×10^3 cells per well in a 96-well plate and cultured for 24 h before the medium was replaced with fresh medium containing free OX, free DACHPt or DACHPt laden silicasome at indicated concentrations. Non-treated cells were used as control. After treatment for 48 h, the medium was replaced with 100 μL of fresh medium containing MTS solution (5:1, v/v medium/CellTiter 96© Aqueous stock solution), and the cells were further cultured at 37° C. for 1 h. The absorbance of the culture wells at 490 nm was recorded by a microplate reader (M5e, Molecular Device, USA). Wells receiving the MTS solution without cells were used as blank. The relative cell viability (%) is [(the absorption of treated well−blank)/(the absorption of control well−blank)]×100%.

[6] = PK study, plasma Pt by ICP-MS after single IV injection; details: Pt dose 4.95 mg/kg, one-compartment model
Protocol: IV injection of non-encapsulated oxaliplatin (at identical Pt molar dose) served as the free drug control because free DACHPt leads to drug precipitates when interacting with Cl ions in the blood^[7b]. Blood collection was performed at 5 mins, 3 h, 6 h, 24 h and 48 h after IV injection, followed by ICP-MS quantification.
The PK study was performed on 10-12-week-old healthy female B6129SF1/J mice. […] After separation of the plasma fraction, the plasma samples were digested with HCl:HNO3 3:1, v/v) in a hot-block, before replenishment in 2% HNO3 for ICP-MS analysis of the Pt content. The PK data were analyzed by PKSolver software, using a one-compartment model^[4].

orthotopic KPC tumor [7] = test: Survival study in orthotopic KPC model w/wo anti-PD-1; format: in vivo, mice; details: agent alone; Pt 2 mg/kg IV, anti-PD-1 100 μg IP; Kaplan-Meier, Log Rank
Protocol: Kaplan-Meier plots were used to display the survival rate of the different animal groups (n=5-7, *p<0.05, Log Rank test).
Tumor-bearing mice were randomly assigned into 6 groups (n=5-7) and received IV injection of Pt drug formulations twice per week as designed in FIG. 6. Anti-PD-1 antibody was injected at 100 μg/animal intraperitoneally two days later after each Pt chemo injection. To assess survival rate, animals were monitored daily up to the stage of spontaneous death or approaching moribund status based on the criteria of extensive abdominal ascites, severe dehydration, significant weight loss (>20%), extreme weakness or inactivity^[4, 21, 30] The survival data were plotted as Kaplan-Meier curves, followed by statistical analysis by Log Rank testing (Mantel-Cox), using GraphPad Prism 7.00 software.

Structure (SMILES)	infiltration by CD8^+ T-cells (KPC cells [1])	number of Foxp3^+ regulatory T cell (Treg) (KPC cells [1])	increase in CD8^+/Tregs cell ratio compared to PBS control (KPC cells [1]) [fold]	tumor free mice (out of 6) (KPC cells [1]; vaccination study)	tumor growth on the contralateral side (KPC cells [1])	encapsulation efficiency (EE %) ([2]; neutral pH 7.4) [%]	encapsulation efficiency (EE %) ([2]; pH 8.5, before lipid coating) [%]	encapsulation efficiency (EE %) ([2]; weak acidic pH 5.5) [%]	HMGB1 release into the supernatant (HMGB1)	cell surface fluorescence of CRT (calreticulin (CRT))	tumor inhibition (primary tumor weight) (orthotopic KPC tumor [3]) [%]	histology of major organs (liver, spleen, kidney, lung, heart) [4]	reduction in cellularity of the hemopoetic cells in the bone marrow [4] [%]	killing of cells / compromised cell viability (MTS) (KPC cells [5]) [%]	circulatory half-life (t1/2) [6] [min]	survival outcome (orthotopic KPC tumor [7])
NC1CCCCC1N.[Pt+2] (stereo not shown) [DACHPt, (1,2-diaminocyclohexane)platinum(II)]	increase in infiltration	reduced number	6	1	growth retardation	60	~75	25	increase of released HMGB1	significant increase						
O=C1[O][Pt]2([NH][C@@H]3CCCC[C@H]3[NH]2)[O]C1=O [oxaliplatin]	increase in infiltration	reduced number	4.8		growth retardation				increase of released HMGB1	significant increase	~5	No major histological abnormalities	> 50	70	21 ± 10.2	No obvious benefit
